US9138421B2, “Platinum compounds for treating cell proliferative diseases, preparation method and use thereof” (priority 2011, dated 2015)
Marks after values point to notes of the source that are not given here.

Columns and labels:
[1] = tested on: colon cancer SW480 cell line; assay: In vivo antitumor activity, colon cancer SW480 in nude mice (2), dose series; conditions: 3 days, tumor weighed 24 hours after drug discontinuance
[2] = Acute toxic effect of platinum complex on normal mice (LD50); format: in vivo, Kunming mice; conditions: both sexes, Kunming, mouse, in vivo; single intravenous administration in 5% glucose, 14 days observation, Bliss method
Method: (§1) Test 1: Acute Toxic Effect of Platinum Complex on Normal Mice
(§2) Embodiment platinum compound was dissolved with 5% glucose solution. […] Mortality and toxicity were observed after administration.

[3] = tested on: lung cancer H292 cell line; assay: In vivo antitumor activity, lung cancer H292 in nude mice; conditions: H292, 15 mg/kg, every 2 days, 4 times, end 30 days after inoculation
lung cancer Lewis = assay: MTT cytotoxicity, lung cancer Lewis; format: cell-based; conditions: n = 6
Method: (§3) The toxic action of Embodiment platinum containing compounds was observed on tumor cells by MTT colorimetric method. Several kinds of tumor cells in exponential growth phase were prepared into single cell suspension, inoculated on 96 pore plat at the density of 4×10^4/hole, cultivated for 24 hours to enable to adhere to wall with 1640 culture medium containing 10% fetal calf serum (complete medium) at 37° C.; the final culture volume was 100 μl. Cell morphology was observed after culture for 24 hours.

normal mice = assay: Acute toxic effect of platinum complex on normal mice (LD50); format: in vivo, Kunming mice; conditions: single intravenous administration in 5% glucose, 14 days observation, Bliss method
Method: as §1, §2

lung cancer H292 = assay: MTT cytotoxicity, lung cancer H292; format: cell-based; conditions: n = 6
Method: as §3

[4] = tested on: Pulmonary epithelial cell BEAS-2B; assay: MTT cytotoxicity, pulmonary epithelial cell BEAS-2B; format: cell-based; conditions: n = 6
Method: as §3

colon cancer SW480 = assay: MTT cytotoxicity, colon cancer SW480; format: cell-based; conditions: n = 6
Method: as §3

testis cell ST = assay: MTT cytotoxicity, testis cell ST; format: cell-based; conditions: n = 6
Method: as §3

gastric cancer MGC803 = assay: MTT cytotoxicity, gastric cancer MGC803; format: cell-based; conditions: n = 6
Method: as §3

[5] = tested on: breast cancer MCF-7 tumor cell line; assay: In vivo antitumor activity, breast cancer MCF-7 in nude mice; conditions: MCF-7, 15 mg/kg, every 2 days, 4 times, end 30 days after inoculation
esophagus cancer ECA109 = assay: MTT cytotoxicity, esophagus cancer ECA109; format: cell-based; conditions: n = 6
Method: as §3

| Compound | LD50 at 14 days [2] | solubility (Solubility in water; water) | tumor inhibition rate (%) [3] | LD50 value (normal mice) | IC50 (lung cancer H292) | IC50 (colon cancer SW480) | IC50 (testis cell ST) | IC50 (gastric cancer MGC803) | tumor inhibition rate (%) [5] | also measured |
| --- | --- | --- | --- | --- | --- | --- | --- | --- | --- | --- |
| N.N.[Cl][Pt][Cl] [cisplatin, Cis-dichlorodiamminoplatinum, reference compound] | – | – | – | – | – | – | – | – | – | tumor inhibition rate (%) (x ±SD) ([1]; SW480, 3 mg/kg): 62.9 ± 9.01%; tumor inhibition rate (%) (x ±SD) ([1]; SW480, 5 mg/kg): 71.1 ± 10.76% |
| CNCCC1C(=O)[O][Pt]([NH2])([NH2])[O]C1=O [compound 1, [2-(2-methylamine ethyl)-malonato].[cis-diamino]platinum (II) phosphate] | 722 µmol/kg | 221 mg/mL | – | – | – | – | – | – | – | – |
| CN(C)CCC1C(=O)[O][Pt]([NH2])([NH2])[O]C1=O [compound 2, [2-(2-dimethylamine ethyl)-malonato].[cis-diamine] platinum (II) acetate] | 791 µmol/kg | 198 mg/mL | – | – | – | – | – | – | – | – |
| CN(C)CCCC1C(=O)[O][Pt]([NH2])([NH2])[O]C1=O [compound 3, [2-(3-dimethylamine propyl)-malonato].[cis-diamine] platinum (II) phosphate] | 824 µmol/kg | 164 mg/mL | – | – | – | – | – | – | – | – |
| NCCCC1C(=O)[O][Pt]([NH2])([NH2])[O]C1=O [compound 4, [2-(3-amino propyl)-malonato].[cis-diamine] platinum (II) phosphate] | 802 µmol/kg | 176 mg/mL | – | – | – | – | – | – | – | – |
| CCN(CC)CCC1C(=O)[O][Pt]([NH2])([NH2])[O]C1=O [compound 5, [2-(2-diethylamine ethyl)-malonato].[cis-diamine] platinum (II) phosphate] | 853 µmol/kg | 187 mg/mL | – | – | – | – | – | – | – | – |
| CCN(CC)CCCC1C(=O)[O][Pt]([NH2])([NH2])[O]C1=O [compound 6, 2-(3-diethylaminepropyl)-malonic-cis-diamino platinum (II) phosphate] | 749 µmol/kg | 165 mg/mL | – | – | – | – | – | – | – | – |
| CN(C)CCC1C(=O)[O][Pt]2([NH]C3CCCCC3[NH]2)[O]C1=O (stereo not drawn) [compound 10, [2-(2-dimethylamino ethyl)-malonato].[cis-(1,2-trans-cyclohexanediamine)] platinum (II)] | – | – | 55.3 ± 11.21 ^ % | 0.593 mmol/kg | 54 µM | 94 µM | – | – | – | IC50 (lung cancer Lewis): 143 µM; IC50 [4]: 220 µM |
| CCN(CC)CCC1C(=O)[O][Pt]2([NH]C3CCCCC3[NH]2)[O]C1=O.O=C(O)CC(O)(CC(=O)O)C(=O)O (stereo not drawn) [compound 13, [2-(2-diethylamine ethyl)-malonato].[cis-(1,2-trans-cyclohexamethylenediamine)]platinum (II) citrate] | – | – | 56.1 ± 9.81 ^ % | – | 316 µM | 80 µM | – | – | – | IC50 (lung cancer Lewis): 36 µM; IC50 [4]: 145 µM |
| CCN(CC)CCCC1C(=O)[O][Pt]2([NH]C3CCCCC3[NH]2)[O]C1=O.O=P(O)(O)O (stereo not drawn) [compound 14, [2-(3-diethylamine propyl)-malonato].[cis-(1,2-trans-cyclohexamethylenediamine)]platinum (II) phosphate] | – | – | 39.8 ± 8.51 % | 0.902 mmol/kg | 161 µM | 78 µM | 251 µM | 213 µM | – | – |
| CCCN(CCC)CCC1C(=O)[O][Pt]2([NH]C3CCCCC3[NH]2)[O]C1=O.O=P(O)(O)O (stereo not drawn) [compound 15, [2-(2-di-n-propylamine ethyl)-malonato].[cis-(1,2-trans-cyclohexamethylenediamine)]platinum (II) phosphate] | – | – | 59.0 ± 11.02 ^ % | 0.469 mmol/kg | 651 µM | 92 µM | 12 µM | 149 µM | – | – |
| CCN(CC)CCCC1C(=O)[O][Pt]2([NH]C3CCC3[NH]2)[O]C1=O.O=C(O)CCC(=O)O (stereo not drawn) [compound 18, 2-(3-diethylaminepropyl)-malonic.cis-(1,2-trans-aminocyclobutyl) platinum (II) succinate] | – | – | – | – | 224 µM | 281 µM | 147 µM | 367 µM | 45.0 ± 9.87% | – |
| CCN(CC)CCCC1C(=O)[O][Pt]2([NH]C3CC3[NH]2)[O]C1=O.O=P(O)(O)O (stereo not drawn) [compound 19, [2-(3-diethylamine propyl)-malonato].[cis-(1,2-trans-cyclopropyldiamine)]platinum (II) phosphate] | – | – | – | 0.802 mmol/kg | 62 µM | – | 251 µM | 213 µM | 52.6 ± 10.5 % | IC50 (esophagus cancer ECA109): 88 µM; solubility (Solubility in water; in water): 218 mg/mL |
| CCN(CC)CCC1C(=O)[O][Pt]2([NH]CCC[NH]2)[O]C1=O.O=P(O)(O)O [compound 21, [2-(2-diethylamine ethyl)-malonato].[cis-1,3-propyldiamine] platinum (II) phosphate] | – | – | – | 0.716 mmol/kg | 205 µM | – | 16 µM | 216 µM | 40.3 ± 9.65% | IC50 (esophagus cancer ECA109): 174 µM; solubility (Solubility in water; in water): 231 mg/mL |
| [NH2][Pt]1([NH2])[O]C(=O)C(CCCN2CCCCC2)C(=O)[O]1 [compound 29, [2-(3-(1-piperidyl)-propyl)-malonato].[cis-diamine]platinum (II) phosphate] | 784 µmol/kg | 159 mg/mL | – | – | – | – | – | – | – | – |
| [NH2][Pt]1([NH2])[O]C(=O)C(CCCN2CCCC2)C(=O)[O]1 [compound 30, [2-(3-(1-pyrrolidyl)-propyl)-malonato].[cis-diamine] platinum (II) phosphate] | 802 µmol/kg | 160 mg/mL | – | – | – | – | – | – | – | – |
| [2-(2-amino ethyl)-malonato].[cis-(1,2-trans-cyclohexamethylene diamine)]platinum (II) phosphate [compound 9] | – | – | 79.2 ± 14.99 % | 0.724 mmol/kg | 63 µM | 71 µM | – | – | – | IC50 (lung cancer Lewis): 69 µM; solubility (Solubility in water; in water): 275 mg/mL; IC50 [4]: 57 µM |
| [2-(2-di-n-propylamine ethyl)-malonato].[cis-1,4-butanediamine] platinum (II) phosphate [compound 22] | – | – | – | 0.882 mmol/kg | 102 µM | – | 302 µM | 556 µM | 40.9 ± 8.97% | IC50 (esophagus cancer ECA109): 215 µM |
| [2-(2-diethylamine ethyl)-malonato].[cis-1,2-(1,2-dihydroxymethyl)-ethyldiamine]platinum (II) phosphate [compound 23] | – | – | – | 0.702 mmol/kg | 84 µM | – | 147 µM | 367 µM | 44.1 ± 15.12% | IC50 (esophagus cancer ECA109): 212 µM |
| [2-(2-dimethylamine ethyl)-malonato].[cis-1,2-ethylenediamine] platinum (II) tosilate [compound 20] | – | – | – | 0.753 mmol/kg | 351 µM | – | 12 µM | 149 µM | 54.52 ± 10.25 % | IC50 (esophagus cancer ECA109): 193 µM |
| [2-(2-dimethylamine ethyl)-malonato].[cis-1,3-(2,2-hydroxymethyl)-propane diamine]platinum (II) phosphate [compound 24] | – | – | – | 0.509 mmol/kg | 65 µM | – | 153 µM | 217 µM | 44.8 ± 11.31% | IC50 (esophagus cancer ECA109): 125 µM |
| [2-(2-ethylamine ethyl)-malonato].[cis-(1,2-trans-cyclohexamethylene diamine)]platinum (II) phosphate [compound 12] | – | – | 76.3 ± 20.67*^ % | 0.609 mmol/kg | 241 µM | 203 µM | – | – | – | IC50 (lung cancer Lewis): 57 µM; solubility (Solubility in water; in water): 221 mg/mL; IC50 [4]: 15 µM |
| [2-(3-di-n-propylamine propyl)-malonato].[cis-(1, 2-trans-cyclohexamethylene diamine)]platinum (II) phosphate [compound 16] | – | – | 35.2 ± 6.43 % | 0.524 mmol/kg | 402 µM | 77 µM | 16 µM | 216 µM | – | – |
| [2-(3-diethylamine propyl)-malonato].[cis-(1,2-trans-diaminocyclopentane)]platinum (II) phosphate [compound 17] | – | – | – | 0.616 mmol/kg | 249 µM | 205 µM | 302 µM | 556 µM | 39.8 ± 12.12% | – |
| [2-(3-dimethylamine propyl)-malonato].[cis-(1,2-trans-cyclohexamethylene diamine)]platinum (II) phosphate [compound 11] | – | – | 35.9 ± 7.13 % | 0.509 mmol/kg | 6 µM | 57 µM | – | – | – | IC50 (lung cancer Lewis): 213 µM; IC50 [4]: 168 µM |
